From patent US20110082182A1, “THERAPEUTIC ANTIVIRAL PEPTIDES” (INTERMUNE, INC., priority 2009, published 2011)

Key:
[1] = biological target: T1, NS3/NS4A-2 (full-length HCV NS3 protease) (Hepatitis C virus genotype 1a, UniProt P27958); experiment: NS3 Inhibition Assay (NS3-NS4 protease assay, RETS1 substrate, fluorescence kinetic read); assay type: biochemical; conditions: NS3/NS4A-2 protease
T1 construct: Recombinant E. coli or Baculovirus full-length NS3 was diluted to 3.33 μM with assay buffer; made in house; host or cells: E. coli or baculovirus (BV) expression
Protocol: NS3 Complex Formation with NS4A-2.
Recombinant E. coli or Baculovirus full-length NS3 was diluted to 3.33 μM with assay buffer and the material was transferred to an eppendorf tube and placed in a water bath in a 4° C. refrigerator. The appropriate amount of NS4A-2 diluted to 8.3 mM in assay buffer was added to an equal the volume of NS3 above (conversion factor—3.8 mg/272 μL assay buffer). The material was transferred to an eppendorf tube and placed in water bath in a 4° C. refrigerator.
After equilibration to 4° C., equal volumes of NS3 and NS4A-2 solutions were combined in an eppendorf tube, mixed gently with a manual pipettor, and incubated for 15 minutes in the 4° C. water bath. Final concentrations in the mixture are 1.67 μM NS3, 4.15 mM NS4A-2 (2485-fold molar excess NS4A-2).
After 15 minutes at 4° C., the NS3/NS4A-2 eppendorf tube was removed and placed in a room temperature water bath for 10 minutes. NS3/NS4A-2 was aliquoted at appropriate volumes and stored at −80° C. (E. coli NS3 run at 2 nM in assay, aliquot at 25 μL. BV NS3 run at 3 nM in assay, aliquot at 30 μL).
Step a. Sample compounds were dissolved to 10 mM in DMSO then diluted to 2.5 mM (1:4) in DMSO. Typically, compounds were added to an assay plate at 2.5 mM concentration, yielding upon dilution a starting concentration of 50 μM in the assay inhibition curve. Compounds were serial diluted in assay buffer to provide test solutions at lower concentrations.
Step 1. The E. coli. NS3/NS4A-2 was diluted to 4 nM NS3 (1:417.5 of 1.67 μM stock−18 μL 1.67 μM stock+7497 μL assay buffer). […]
The plate was read in kinetic mode on the Molecular Devices SpectraMax Gemini XS plate reader. Reader settings: Read time: 30 minutes, Interval: 36 seconds, Reads: 51, Excitation λ: 335 nm, Emission λ: 495 nm, cutoff: 475 nm, Automix: off, Calibrate: once, PMT: high, Reads/well: 6, Vmax pts: 21 or 28/51 depending on length of linearity of reaction
IC50s are determined using a four parameter curve fit equation, and converted to Ki's using the following Km's: […]

[2] = tested on: HCV sub-genomic replicon (I377/NS3-3') in HuH-7 hepatoma cells (GS4.3); experiment: Quantitation by ELISA of NPTII in the HCV sub-genomic replicon, GS4.3; assay type: cell-based; conditions: Hepatitis C virus, GS4.3 replicon cells, 72 h
From the text: Quantitation by ELISA of the Selectable Marker Protein, Neomycin Phosphotransferase II (NPTII) in the HCV Sub-Genomic Replicon, GS4.3
The HCV sub-genomic replicon (I377/NS3-3′, accession No. AJ242652), stably maintained in HuH-7 hepatoma cells, was created by Lohmann et al. Science 285: 110-113 (1999). The replicon-containing cell culture, designated GS4.3, was obtained from Dr. Christoph Seeger of the Institute for Cancer Research, Fox Chase Cancer Center, Philadelphia, Pa.
GS4.3 cells were maintained at 37° C., 5%CO2, in DMEM (Gibco 11965-092) supplemented with L-glutamine 200 mM (100×) (Gibco25030-081), non-essential amino acids (NEAA) (Biowhittaker 13-114E), heat-inactivated (HI) Fetal Bovine Serum (FBS) (Hyclone SH3007.03) and 750 μg/mL geneticin (G418) (Gibco 10131-035). Cells were sub-divided 1:3 or 4 every 2-3 days.
24 h prior to the assay, GS4.3 cells were collected, counted, and plated in 96-well plates (Costar 3585) at 7500 cells/well in 100 μL standard maintenance medium (above) and incubated in the conditions above. To initiate the assay, culture medium was removed, cells were washed once with PBS (Gibco 10010-023) and 90 μl Assay Medium (DMEM, L-glutamine, NEAA, 10% HI FBS, no G418) was added. Inhibitors were made as a 10× stock in Assay Medium, (3-fold dilutions from 10 μM to 56 pM final concentration, final DMSO concentration 1%), 10 μL were added to duplicate wells, plates were rocked to mix, and incubated as above for 72 h.
An NPTII Elisa kit was obtained from AGDIA, Inc. (Compound direct ELISA test system for Neomycin Phosphotransferase II, PSP 73000/4800). Manufacturer's instructions were followed, with some modifications. 10× PEB-1 lysis buffer was made up to include 500 μM PMSF (Sigma P7626, 50 mM stock in isopropanol). […] Plates were read at 450 nm on a Molecular Devices Versamax plate reader.
Inhibitor effect was expressed as a percentage of DMSO-treated control signal, and inhibition curves were calculated using a 4-parameter equation: y=A+4B−A)/(1+((C/x)̂C))), where C is half-maximal activity or EC50.

T1 sequence (P27958 1027-1657): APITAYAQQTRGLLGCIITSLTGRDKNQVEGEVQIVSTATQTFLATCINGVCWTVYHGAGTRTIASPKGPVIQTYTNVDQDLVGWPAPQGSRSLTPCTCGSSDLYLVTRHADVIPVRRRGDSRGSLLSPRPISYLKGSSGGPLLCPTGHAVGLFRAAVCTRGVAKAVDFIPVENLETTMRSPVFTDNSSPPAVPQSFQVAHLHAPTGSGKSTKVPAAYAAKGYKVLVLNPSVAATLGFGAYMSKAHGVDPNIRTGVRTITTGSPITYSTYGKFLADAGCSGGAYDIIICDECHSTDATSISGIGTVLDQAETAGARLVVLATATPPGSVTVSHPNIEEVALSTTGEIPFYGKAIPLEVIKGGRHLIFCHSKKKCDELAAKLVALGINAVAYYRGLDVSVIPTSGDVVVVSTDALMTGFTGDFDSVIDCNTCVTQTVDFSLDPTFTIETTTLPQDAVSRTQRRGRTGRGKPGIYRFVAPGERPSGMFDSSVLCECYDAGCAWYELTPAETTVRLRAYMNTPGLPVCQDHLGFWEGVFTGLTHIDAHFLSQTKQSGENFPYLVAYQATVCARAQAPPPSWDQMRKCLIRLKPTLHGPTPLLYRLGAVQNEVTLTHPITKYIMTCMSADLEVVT

| SMILES | IC50 [1] [nM] | EC50 [2] [nM] |
| --- | --- | --- |
| CC[C@@H]1C[C@@]12NC(=O)[C@@H]1C[C@H](CN1C(=O)[C@@H](NC(=O)OC(C)(C)C)C(C)(C)C)Oc1nc3ccccc3n1C/C=C\CCCC1(CC1)S(=O)(=O)NC2=O [Compound 1] | < 100 | > 1000 |
| CC[C@@H]1C[C@@]12NC(=O)[C@@H]1C[C@H](CN1C(=O)[C@@H](NC(=O)OC(C)(C)C)C(C)(C)C)Oc1nc3ccccc3n1CCC/C=C\CCC1(CC1)S(=O)(=O)NC2=O [Compound 5] | < 100 | > 1000 |
| CC[C@@H]1C[C@@]12NC(=O)[C@@H]1C[C@H](CN1C(=O)[C@@H](NC(=O)OC(C)(C)C)C(C)(C)C)Oc1nc3ccccc3n1CCCCCCCC1(CC1)S(=O)(=O)NC2=O [Compound 6] | 100 to 1000 | > 1000 |
